The source of these data is the NIST ThermoML archive (doi:10.1021/acs.jced.7b00288).

Numbers after ± are expanded uncertainties.

For data set [1] the following is noted: Crystal; DTA.
A short description of data set [2]: Molar enthalpy of transition or fusion. As to conditions: Crystal; DSC.

As for `Cc1ccc(NC(=O)C(C)Cl)cc1` (configuration not stated) [2-chloro-N-(4-methylphenyl)propanamide], in data set [1], the Normal melting temperature turned out to be 121.68 ± 0.43 °C. Further, in data set [2], the “Molar enthalpy of transition or fusion” value stood at 6.4 ± 0.206 kcal/mol.
